According to patent US20230167118A1, “DEGRADATION OF BRUTON'S TYROSINE KINASE (BTK) BY CONJUGATION OF BTK INIDBITORS WITH E3 LIGASE LIGAND AND METHODS OF USE” (BEIGENE, LTD., priority 2020, published 2023):

How the values were obtained:
BTK = target: T1, BTK (Homo sapiens, UniProt Q06187); assay: Cell Degradation: BTK degradation in TMD-8 cells, HTRF assay; format: cell-based; settings: 6 h treatment, IC50 (DC50) of BTK degradation
T1 construct: High control=Cell group with added DMSO and without compound, indicating microplate readings without BTK degradation; endogenous in cells; host or cells: TMD-8 cells
Procedure: TMD-8 cells are treated with compounds in 0.2% DMSO, dilution is done according to the following protocol: (1) make 500× stock solution in DMSO from 1 mM by 6-fold dilution, total 8 doses were included; (2) make 2× solution in cell culture medium by transferring 0.5 μl 500× stock solution into 125 μl medium; (3) 15 μl of 2× solution is added to cells and incubate for 6 h.
After 6 h treatment, add […] 4×lysis buffer to each well; seal the plate and incubate 30 min at room temperature on a plate shaker; Once the cells are lysed, 16 μL of cell lysate are transferred to a PE 384-well HTRF detection plate; 4 μL of pre-mixed HTRF antibodies are added to each well; Cover the plate with a plate sealer, spin 1000 rpm for 1 min, Incubate overnight at room temperature; Read on BMG PheraStar with HTRF protocol (337 nm-665 nm-620 nm).
The inhibition (degradation) percentage of the compound was calculated by the following equation: Inhibition percentage of Compound=100-100× (Signal-low control)/(High control-low control), wherein signal=each test compound group
Dmax is the maximum percentage of inhibition (degradation).
The IC50 (DC50) value of a compound can be obtained by fitting the following equation
Y=Bottom+(TOP-Bottom)/(1+((IC50/X)^hillslope))
(§1) Wherein, X and Y are known values, and IC50, Hillslope, Top and Bottom are the parameters obtained by fitting with software. Y is the inhibition percentage (calculated from the equation), X is the concentration of the compound; IC50 is the concentration of the compound when the 50% inhibition is reached. The smaller the IC50 value is, the stronger the inhibitory ability of the compound is. Vice versa, the higher the IC50 value is, the weaker the ability the inhibitory ability of the compound is; Hillslope represents the slope of the fitted curve, generally around 1 *; Bottom represents the minimum value of the curve obtained by data fitting, which is generally 0%±20%; Top represents the maximum value of the curve obtained by data fitting, which is generally 100%±20%. The experimental data were fitted by calculating and analyzing with Dotmatics data analysis software.

HEK-293 cells = assay: HEK-293 Cytotoxicity Assay (CellTiter-Glo); format: cell-based; settings: Homo sapiens, HEK293, 72 h incubation, CellTiter-Glo luminescence
Procedure: HEK-293 Cytotoxicity Assay
HEK-293 cells are treated with compounds diluted in 0.2% DMSO, dilution is done according to the following protocol: (1) make 500× stock solution in DMSO from 5 mM by 4-fold dilution, total 8 doses were included; (2) make 2× solution in cell culture medium by transferring 0.5 ul 500× stock solution into 125 ul medium; (3) 50 ul of 2× solution is added to cells and incubate for 72 h.
Add 25 μl of the CellTiter-Glo®Reagent [I (Promega)—Cat No. G7572] to each well in the 96-well plate. Mix contents for 2 minutes on an orbital shaker to induce cell lysis. Allow the plate to incubate at room temperature for 10 minutes to stabilize luminescent signal. Record luminescence on BMG PheraStar with luminescence protocol.
as §1, with “The IC50 value of a compound can be obtained by fitting the following equation. Y=Bottom+(TOP−Bottom)/(1+((IC50/X)^hillslope)) Wherein,” for “Wherein,”, “1*;” for “1 *;”

T1 sequence (Q06187 whole entry): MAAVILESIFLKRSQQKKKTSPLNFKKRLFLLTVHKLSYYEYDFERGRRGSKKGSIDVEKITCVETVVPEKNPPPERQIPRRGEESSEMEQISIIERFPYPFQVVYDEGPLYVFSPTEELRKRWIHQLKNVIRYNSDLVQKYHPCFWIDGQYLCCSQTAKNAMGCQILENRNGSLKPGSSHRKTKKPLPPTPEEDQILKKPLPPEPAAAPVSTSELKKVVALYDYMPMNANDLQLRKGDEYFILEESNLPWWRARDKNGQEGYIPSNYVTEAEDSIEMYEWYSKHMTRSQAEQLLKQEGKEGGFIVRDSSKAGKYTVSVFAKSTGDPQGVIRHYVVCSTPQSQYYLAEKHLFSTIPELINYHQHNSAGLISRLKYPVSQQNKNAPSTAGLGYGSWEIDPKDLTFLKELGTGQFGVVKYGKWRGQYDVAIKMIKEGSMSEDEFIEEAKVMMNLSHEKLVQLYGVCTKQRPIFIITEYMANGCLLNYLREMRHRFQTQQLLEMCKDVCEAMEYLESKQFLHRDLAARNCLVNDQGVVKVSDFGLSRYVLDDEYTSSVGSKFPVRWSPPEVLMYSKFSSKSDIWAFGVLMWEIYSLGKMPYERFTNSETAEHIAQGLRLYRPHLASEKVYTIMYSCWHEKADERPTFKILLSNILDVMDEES

SMILES	DC50 (BTK) [nM]	IC50 (HEK-293 cells) [nM]
Cc1cc(-c2ncnc3[nH]c(-c4ccc(C5CCN(CC6CCN(c7ccc(N8CCC(=O)NC8=O)cc7)CC6)CC5)cc4)cc23)ccc1CNC(=O)c1nc(C(C)(C)C)no1 [Example 1, 3-(tert-butyl)-N-(4-(6-(4-(1-((1-(4-(2,4-dioxotetrahydropyrimidin-1(2H)-yl)phenyl)piperidin-4-yl)methyl)piperidin-4-yl)phenyl)-7H-pyrrolo[2,3-d]pyrimidin-4-yl)-2-methylbenzyl)-1,2,4-oxadiazole-5-carboxamide]	0.54	> 10000
Cc1cc(-c2ncnc3[nH]c(-c4ccc(C5CCN(CC6CCN(c7cc8c(cc7F)C(=O)N(C7CCC(=O)NC7=O)C8=O)CC6)CC5)cc4)cc23)ccc1CNC(=O)c1nc(C(C)(C)C)no1 (stereo not shown) [Example 2, 3-(tert-butyl)-N-(4-(6-(4-(1-((1-(2-(2,6-dioxopiperidin-3-yl)-6-fluoro-1,3-dioxoisoindolin-5-yl)piperidin-4-yl)methyl)piperidin-4-yl)phenyl)-7H-pyrrolo[2,3-d]pyrimidin-4-yl)-2-methylbenzyl)-1,2,4-oxadiazole-5-carboxamide]	1.75	> 10000
Cc1cc(-c2ncnc3[nH]c(-c4ccc(C5CCN(CCC6CCN(c7ccc(N8CCC(=O)NC8=O)cc7)CC6)CC5)cc4)cc23)ccc1CNC(=O)c1nc(C(C)(C)C)no1 [Example 3, 3-(tert-butyl)-N-(4-(6-(4-(1-(2-(1-(4-(2,4-dioxotetrahydropyrimidin-1(2H)-yl)phenyl)piperidin-4-yl)ethyl)piperidin-4-yl)phenyl)-7H-pyrrolo[2,3-d]pyrimidin-4-yl)-2-methylbenzyl)-1,2,4-oxadiazole-5-carboxamide]	3.8	1700
Cc1cc(-c2ncnc3[nH]c(-c4ccc(C5CCN(CCC6CCN(c7ccc(C8CCC(=O)NC8=O)cc7)CC6)CC5)cc4)cc23)ccc1CNC(=O)c1nc(C(C)(C)C)no1 (stereo not shown) [Example 4, 3-(tert-butyl)-N-(4-(6-(4-(1-(2-(1-(4-(2,6-dioxopiperidin-3-yl)phenyl)piperidin-4-yl)ethyl)piperidin-4-yl)phenyl)-7H-pyrrolo[2,3-d]pyrimidin-4-yl)-2-methylbenzyl)-1,2,4-oxadiazole-5-carboxamide]	2.3	3700
Cc1cc(-c2ncnc3[nH]c(-c4ccc(C5CCN(CC6CN(c7ccc(N8CCC(=O)NC8=O)cc7)C6)CC5)cc4)cc23)ccc1CNC(=O)c1nc(C(C)(C)C)no1 [Example 5, 3-(tert-butyl)-N-(4-(6-(4-(1-((1-(4-(2,4-dioxotetrahydropyrimidin-1(2H)-yl)phenyl)azetidin-3-yl)methyl)piperidin-4-yl)phenyl)-7H-pyrrolo[2,3-d]pyrimidin-4-yl)-2-methylbenzyl)-1,2,4-oxadiazole-5-carboxamide]	1	2960
Cc1cc(-c2ncnc3[nH]c(-c4ccc(C5CCN(CCCC6CN(c7ccc8c(c7)C(=O)N(C7CCC(=O)NC7=O)C8=O)C6)CC5)cc4)cc23)ccc1CNC(=O)c1nc(C(C)(C)C)no1 (stereo not shown) [Example 6, 3-(tert-butyl)-N-(4-(6-(4-(1-(3-(1-(2-(2,6-dioxopiperidin-3-yl)-1,3-dioxoisoindolin-5-yl)azetidin-3-yl)propyl)piperidin-4-yl)phenyl)-7H-pyrrolo[2,3-d]pyrimidin-4-yl)-2-methylbenzyl)-1,2,4-oxadiazole-5-carboxamide]	1.7	> 10000
Cc1cc(-c2ncnc3[nH]c(-c4ccc(C5CCN(CC6CCN(c7ccc(N8CCC(=O)NC8=O)cc7)CC6)CC5)cc4)cc23)ccc1[C@@H](C)NC(=O)c1nc(C(C)(C)C)no1 [Example 7, (R)-3-(tert-butyl)-N-(1-(4-(6-(4-(1-((1-(4-(2,4-dioxotetrahydropyrimidin-1(2H)-yl)phenyl)piperidin-4-yl)methyl)piperidin-4-yl)phenyl)-7H-pyrrolo[2,3-d]pyrimidin-4-yl)-2-methylphenyl)ethyl)-1,2,4-oxadiazole-5-carboxamide]	1.3	1600
Cc1cc(-c2ncnc3[nH]c(-c4ccc(C5CCN(CC6CCN(c7ccc(N8CCC(=O)NC8=O)cc7)CC6)CC5)cc4)cc23)ccc1[C@H](C)NC(=O)c1nc(C(C)(C)C)no1 [Example 8, (S)-3-(tert-butyl)-N-(1-(4-(6-(4-(1-((1-(4-(2,4-dioxotetrahydropyrimidin-1(2H)-yl)phenyl)piperidin-4-yl)methyl)piperidin-4-yl)phenyl)-7H-pyrrolo[2,3-d]pyrimidin-4-yl)-2-methylphenyl)ethyl)-1,2,4-oxadiazole-5-carboxamide]	40.9	1960
Cc1c(-c2ncnc3[nH]c(-c4ccc(C5CCN(CC6CCN(c7ccc(N8CCC(=O)NC8=O)cc7)CC6)CC5)cc4)cc23)cccc1N1CCn2c(cc3c2CC(C)(C)C3)C1=O [Example 9, 1-(4-(4-((4-(4-(4-(3-(7,7-dimethyl-1-oxo-1,3,4,6,7,8-hexahydro-2H-cyclopenta[4,5]pyrrolo[1,2-a]pyrazin-2-yl)-2-methylphenyl)-7H-pyrrolo[2,3-d]pyrimidin-6-yl)phenyl)piperidin-1-yl)methyl)piperidin-1-yl)phenyl)dihydropyrimidine-2,4(1H,3H)-dione]	7.2	746
Cc1c(-c2ncnc3[nH]c(-c4ccc(N5CCN(CC6CCN(c7ccc(N8CCC(=O)NC8=O)cc7)CC6)CC5)nc4)cc23)cccc1N1CCn2c(cc3c2CC(C)(C)C3)C1=O [Example 10, 1-(4-(4-((4-(5-(4-(3-(7,7-dimethyl-1-oxo-1,3,4,6,7,8-hexahydro-2H-cyclopenta[4,5]pyrrolo[1,2-a]pyrazin-2-yl)-2-methylphenyl)-7H-pyrrolo[2,3-d]pyrimidin-6-yl)pyridin-2-yl)piperazin-1-yl)methyl)piperidin-1-yl)phenyl)dihydropyrimidine-2,4(1H,3H)-dione]	3.4	> 10000
Cc1c(-c2ncnc3[nH]c(-c4ccc(N5CCN(CC6CCN(c7ccc(N8CCC(=O)NC8=O)cc7)CC6)CC5)cc4)cc23)cccc1N1CCn2c(cc3c2CC(C)(C)C3)C1=O [Example 11, 1-(4-(4-((4-(4-(4-(3-(7,7-dimethyl-1-oxo-1,3,4,6,7,8-hexahydro-2H-cyclopenta[4,5]pyrrolo[1,2-a]pyrazin-2-yl)-2-methylphenyl)-7H-pyrrolo[2,3-d]pyrimidin-6-yl)phenyl)piperazin-1-yl)methyl)piperidin-1-yl)phenyl)dihydropyrimidine-2,4(1H,3H)-dione]	4.7	> 10000
COc1ccc(C(=O)N2CCC(c3ccc(-c4cc5c(-c6ccc(CNC(=O)c7nc(C(C)(C)C)no7)c(C)c6)ncnc5[nH]4)cc3)CC2)cc1N1CCC(=O)NC1=O [Example 12, 3-(tert-butyl)-N-(4-(6-(4-(1-(3-(2,4-dioxotetrahydropyrimidin-1(2H)-yl)-4-methoxybenzoyl)piperidin-4-yl)phenyl)-7H-pyrrolo[2,3-d]pyrimidin-4-yl)-2-methylbenzyl)-1,2,4-oxadiazole-5-carboxamide]	2	> 10000
Cc1cc(-c2ncnc3[nH]c(-c4c(C)nn(C5CCN(CC6CCN(c7ccc(N8CCC(=O)NC8=O)cc7)CC6)CC5)c4C)cc23)ccc1[C@@H](C)N(C)C(=O)c1nc(C(C)(C)C)no1 [Example 155, (R)-3-(tert-butyl)-N-(1-(4-(6-(1-(1-((1-(4-(2,4-dioxotetrahydropyrimidin-1(2H)-yl)phenyl)piperidin-4-yl)methyl)piperidin-4-yl)-3,5-dimethyl-1H-pyrazol-4-yl)-7H-pyrrolo[2,3-d]pyrimidin-4-yl)-2-methylphenyl)ethyl)-N-methyl-1,2,4-oxadiazole-5-carboxamide]	13.3	
